Assay results from US11382892B2, “Method for administration” (Hoffmann-La Roche Inc., priority 2012, dated 2022).

Legend:
solid tumors = test: On-going Phase I studies in solid tumors; assay type: in vivo, human
From the text: Thus, a 3-5 daily treatment schedule is expected to provide the best benefit ratio taking into consideration efficacy and toxicity.

[1] = test system: human osteosarcoma cancer xenograft model SJSA1; test: Survival / increase in life span in SJSA1 xenograft; assay type: in vivo, mice; conditions: for 50% Treatment Days (median survival): vehicle 26 days
Method: For survival assessment, the percent of increased life space (ILS) was calculated as: 100×[(median survival day of treated group−median survival day of control group)/median survival day of control group]. Median survival was determined utilizing Kaplan Meier survival analysis. Survival in treated groups was statistically compared with the vehicle group and survival comparisons were done between groups using the log-rank test (Graph Pad Prism, La Jolla, Calif., USA). Differences between groups were considered significant when the probability value (p) was ≤0:05.
All dose levels are reported as the actual dosage of Compound A rather than including drug plus polymer.
(§1) Female athymic Crl:NU-Foxn1nu mice (10/group), obtained from Charles River Laboratories (Wilmington, Del.) were utilized when they were approximately 10-12 weeks of age and weighed 23-25 g. The health of the mice was assessed daily by gross observation and analyses of blood samples taken from sentinel animals housed on shared shelf racks. All animals were allowed to acclimate and recover from any shipping-related stress for a minimum of 72 hours prior to experimental use. Autoclaved water and irradiated food (5058-ms Pico Lab mouse chow, Purina Mills, Richmond, Ind.) were provided ad libitum, and the animals were maintained on a 12 hour light and dark cycle. Cages, bedding and water bottles were autoclaved before use and changed weekly. All animal experiments were conducted in accordance with the Guide for the Care and Use of Laboratory Animals, local regulations, and protocols approved by the Roche Animal Care and Use Committee in an AAALAC accredited facility.
SJSA cells (ATCC) were maintained in RPMI 1640+10% (v/v) heat-inactivated FBS+i % (v/v) […] L-glutamine. Each mouse received 5×10^6 cells in a 1:1 mixture of phosphate buffered saline and Matrigel in a total volume of 0.2 ml. Cells were implanted subcutaneously in the right flank using a 1 cc syringe and a 26 gauge needle.
(§2) Treatment duration was 2-4 weeks. Dates of tumor implant, treatment initiation (study start date), and termination of treatment (study end date) can be found in Table 6 below. The starting tumor volume for this study was about 220 mm^3. Tumor volumes and animal body weights were measured three times per week and animals were monitored for clinical signs daily.

[2] = Toxicity summary (body weight, mortality) in MOLM-13 xenograft study; assay type: in vivo; conditions: MOLM-13 study
From the text: (§3) In the examples below, weight loss was graphically represented as percent change in mean group body weight, using the formula: ((W−W0)/W0)×100, where ‘W’ represents mean body weight of the treated group at a particular day, and ‘W0’ represents mean body weight of the same treated group at initiation of treatment.
as §1, with “SCID:beige” for “athymic Crl:NU-Foxn1nu”, “8-10” for “10-12”, “21-23” for “23-25”
Treatment duration was initiated on day 3 and was for 2 weeks. Animal body weights were measured three times per week and animals were monitored for clinical signs daily.

[3] = Toxicity summary (body weight, mortality) in SJSA1 xenograft study; assay type: in vivo
From the text: as §3, §1, §2

[4] = 100 mg/kg QD po 2 on/12 off x 2
[5] = 200 mg/kg (two 100 mg/kg doses 8 hr apart) 1x/wk po

COc1cc(C(=O)O)ccc1NC(=O)[C@@H]1N[C@@H](CC(C)(C)C)[C@](C#N)(c2ccc(Cl)cc2F)[C@H]1c1cccc(Cl)c1F [Compound A, 4-{[(2R,3S,4R,5S)-4-(4-Chloro-2-fluoro-phenyl)-3-(3-chloro-2-fluoro-phenyl)-4-cyano-5-(2,2-dimethyl-propyl)-pyrrolidine-2-carbonyl]-amino}-3-methoxy-benzoic acid]
toxicity of longer schedules (solid tumors; longer schedules): delayed thrombocytopenia | continuous exposure after which maximal apoptosis occurs (solid tumors; solid tumors): about 48 hours | % Increased Life Span (% ILS) ([1]; 7.5 mg/kg QD po): 23% | 50% Treatment Days (median survival) ([1]; 7.5 mg/kg QD po): 32 days | % Increased Life Span (% ILS) ([1]; 15 mg/kg QD po): 62% | 50% Treatment Days (median survival) ([1]; 15 mg/kg QD po): 42 days | % Increased Life Span (% ILS) ([1]; 20 mg/kg QD po 20 on/8 off): 77% | 50% Treatment Days (median survival) ([1]; 20 mg/kg QD po 20 on/8 off): 46 days | % Increased Life Span (% ILS) ([1]; 30 mg/kg QD po): 127% | 50% Treatment Days (median survival) ([1]; 30 mg/kg QD po): 59 days | % Increased Life Span (% ILS) ([1]; 50 mg/kg 1x/wk po): 23% | 50% Treatment Days (median survival) ([1]; 50 mg/kg 1x/wk po): 32 days | % Increased Life Span (% ILS) ([1]; 50 mg/kg QD po 2 on/5 off x 4): 119% | 50% Treatment Days (median survival) ([1]; 50 mg/kg QD po 2 on/5 off x 4): 57 days | % Increased Life Span (% ILS) ([1]; 50 mg/kg QD po 4 on/10 off x 2): 112% | 50% Treatment Days (median survival) ([1]; 50 mg/kg QD po 4 on/10 off x 2): 55 days | % Increased Life Span (% ILS) ([1]; 80 mg/kg QD po 5 on/23 off): 127% | 50% Treatment Days (median survival) ([1]; 80 mg/kg QD po 5 on/23 off): 59 days | % Increased Life Span (% ILS) ([1]; 100 mg/kg 1x/wk po): 77% | 50% Treatment Days (median survival) ([1]; 100 mg/kg 1x/wk po): 46 days | % Increased Life Span (% ILS) ([1]; 100 mg/kg QD po 2 on/5 off x 4): 188% | 50% Treatment Days (median survival) ([1]; 100 mg/kg QD po 2 on/5 off x 4): 75 days | % Increased Life Span (% ILS) [1, 4]: 119% | 50% Treatment Days (median survival) [1, 4]: 57 days | % Increased Life Span (% ILS) [1, 5]: 162% | 50% Treatment Days (median survival) [1, 5]: 68 days | treatment related toxicity ([2]; 80 mg/kg qd × 5 po): absence of treatment related toxicity | # of animals ≥20% BWL ([2]; 80 mg/kg qdx5 po): 0 | % Change in Body Weight at end of Study Day 17 ([2]; 80 mg/kg qdx5 po): −3.2% | Maximum % Weight gain ([2]; 80 mg/kg qdx5 po): −3.2% | Maximum % Weight loss ([2]; 80 mg/kg qdx5 po): −5.5% | Mortality (reason) ([2]; 80 mg/kg qdx5 po, reason: dosing injury): 1 (dosing | # of animals ≥20% BWL ([3]; 7.5 mg/kg QD po): 0 | % Change in Body Weight at end of Study Day 29 ([3]; 7.5 mg/kg QD po): 9.0% | Maximum % Weight gain ([3]; 7.5 mg/kg QD po): 9.0% | Maximum % Weight loss ([3]; 7.5 mg/kg QD po): −0.3% | Mortality ([3]; 7.5 mg/kg QD po): 0 | # of animals ≥20% BWL ([3]; 15 mg/kg QD po): 0 | % Change in Body Weight at end of Study Day 29 ([3]; 15 mg/kg QD po): 5.9% | Maximum % Weight gain ([3]; 15 mg/kg QD po): 5.9% | Maximum % Weight loss ([3]; 15 mg/kg QD po): −2.2% | Mortality ([3]; 15 mg/kg QD po): 0 | # of animals ≥20% BWL ([3]; 20 mg/kg QD po 20 on/8 off): 0 | % Change in Body Weight at end of Study Day 29 ([3]; 20 mg/kg QD po 20 on/8 off): 1.2% | Maximum % Weight gain ([3]; 20 mg/kg QD po 20 on/8 off): 1.2% | Maximum % Weight loss ([3]; 20 mg/kg QD po 20 on/8 off): −3.9% | Mortality ([3]; 20 mg/kg QD po 20 on/8 off): 0 | # of animals ≥20% BWL ([3]; 30 mg/kg QD po): 0 | % Change in Body Weight at end of Study Day 29 ([3]; 30 mg/kg QD po): 1.3% | Maximum % Weight gain ([3]; 30 mg/kg QD po): 1.3% | Maximum % Weight loss ([3]; 30 mg/kg QD po): −0.2% | Mortality ([3]; 30 mg/kg QD po): 0 | # of animals ≥20% BWL ([3]; 50 mg/kg 1x/wk po): 0 | % Change in Body Weight at end of Study Day 29 ([3]; 50 mg/kg 1x/wk po): 6.6% | Maximum % Weight gain ([3]; 50 mg/kg 1x/wk po): 6.6% | Maximum % Weight loss ([3]; 50 mg/kg 1x/wk po): −0.3% | Mortality ([3]; 50 mg/kg 1x/wk po): 0 | # of animals ≥20% BWL ([3]; 50 mg/kg QD po 2 on/5 off x 4): 0 | % Change in Body Weight at end of Study Day 29 ([3]; 50 mg/kg QD po 2 on/5 off x 4): 7.1% | Maximum % Weight gain ([3]; 50 mg/kg QD po 2 on/5 off x 4): 7.1% | Maximum % Weight loss ([3]; 50 mg/kg QD po 2 on/5 off x 4): −0.8% | Mortality ([3]; 50 mg/kg QD po 2 on/5 off x 4): 0 | # of animals ≥20% BWL ([3]; 50 mg/kg QD po 4 on/10 off x 2): 0 | % Change in Body Weight at end of Study Day 29 ([3]; 50 mg/kg QD po 4 on/10 off x 2): 1.2% | Maximum % Weight gain ([3]; 50 mg/kg QD po 4 on/10 off x 2): 1.2% | Maximum % Weight loss ([3]; 50 mg/kg QD po 4 on/10 off x 2): −1.1% | Mortality ([3]; 50 mg/kg QD po 4 on/10 off x 2): 0 | # of animals ≥20% BWL ([3]; 80 mg/kg QD po 5 on/23 off): 0 | % Change in Body Weight at end of Study Day 29 ([3]; 80 mg/kg QD po 5 on/23 off): 8.0% | Maximum % Weight gain ([3]; 80 mg/kg QD po 5 on/23 off): 8.0% | Maximum % Weight loss ([3]; 80 mg/kg QD po 5 on/23 off): 0.3% | Mortality ([3]; 80 mg/kg QD po 5 on/23 off): 0 | # of animals ≥20% BWL ([3]; 100 mg/kg 1x/wk po): 0 | % Change in Body Weight at end of Study Day 29 ([3]; 100 mg/kg 1x/wk po): 9.1% | Maximum % Weight gain ([3]; 100 mg/kg 1x/wk po): 9.1% | Maximum % Weight loss ([3]; 100 mg/kg 1x/wk po): 4.2% | Mortality ([3]; 100 mg/kg 1x/wk po): 0 | # of animals ≥20% BWL ([3]; 100 mg/kg QD po 2 on/5 off x 4): 0 | % Change in Body Weight at end of Study Day 29 ([3]; 100 mg/kg QD po 2 on/5 off x 4): 1.3% | Maximum % Weight gain ([3]; 100 mg/kg QD po 2 on/5 off x 4): 1.3% | Maximum % Weight loss ([3]; 100 mg/kg QD po 2 on/5 off x 4): −2.8% | Mortality ([3]; 100 mg/kg QD po 2 on/5 off x 4): 0 | # of animals ≥20% BWL [3, 4]: 0 | % Change in Body Weight at end of Study Day 29 [3, 4]: 0.9% | Maximum % Weight gain [3, 4]: 1.8% | Maximum % Weight loss [3, 4]: −0.6% | Mortality [3, 4]: 0 | # of animals ≥20% BWL [3, 5]: 0 | % Change in Body Weight at end of Study Day 29 [3, 5]: 6.3% | Maximum % Weight gain [3, 5]: 6.3% | Maximum % Weight loss [3, 5]: 1.9% | Mortality [3, 5]: 0
